Target: USP9X (Homo sapiens (Human), UniProt Q93008)
Experiment: USP9X enzyme activity assay, ubiquitin-rhodamine110 substrate
Details: Table 8
Description: The inhibition property of compound Compound 1A was evaluated in assays measuring the ability of USP9X to catalyze the hydrolysis of the amide bond between the C terminal carboxylate of ubiquitin and rhodamine110 of the fluorogenic substrate ubiquitin-rhodamine 110. To the wells of a 96 well reaction plate was added 12.5 μL USP9X solution (1.3 nM) in assay buffer (100 mM NaCl, 1 mM DTT, 0.1% bovine serum albumin, 0.05% Tween 20, 50 mM Tris, pH 7.5). 12.5 μL of Compound 1A in assay buffer (4×final concentration) was added to the wells containing the USP9X solution, and the solution was gently mixed by pipetting up and down several times. The plate was sealed and incubated at room temperature for 20 minutes.
Then 25 μL of the 1 μM substrate (ubiquitin-rhodaminel10) solution was added in assay buffer. The final substrate concentration was 0.5 μM. […] The slope for the rate of change of the fluorescence was determined and plotted vs the concentration of Compound 1A.
USP9X enzyme assays were set up in a 96 well plate to assess the abilities of Compound 3A and Compound 4A to inhibit the activity of USP9X, respectively. Ubiquitin-rhodamine110 was used as the substrate and ubiquitin aldehyde was included in the assay as a positive control.
Purified recombinant USPx9 (R&D Systems) in 50 mM Tris buffer pH 7.5, 1 mM DTT, 100 mM NaCl, 0.05% Tween 20 and 0/1% BSA is used at a concentration of 0.325 nM with 0.5 μM ubiquitin-rhodamine (R&D Systems).

Sequence of USP9X (Q93008 whole entry): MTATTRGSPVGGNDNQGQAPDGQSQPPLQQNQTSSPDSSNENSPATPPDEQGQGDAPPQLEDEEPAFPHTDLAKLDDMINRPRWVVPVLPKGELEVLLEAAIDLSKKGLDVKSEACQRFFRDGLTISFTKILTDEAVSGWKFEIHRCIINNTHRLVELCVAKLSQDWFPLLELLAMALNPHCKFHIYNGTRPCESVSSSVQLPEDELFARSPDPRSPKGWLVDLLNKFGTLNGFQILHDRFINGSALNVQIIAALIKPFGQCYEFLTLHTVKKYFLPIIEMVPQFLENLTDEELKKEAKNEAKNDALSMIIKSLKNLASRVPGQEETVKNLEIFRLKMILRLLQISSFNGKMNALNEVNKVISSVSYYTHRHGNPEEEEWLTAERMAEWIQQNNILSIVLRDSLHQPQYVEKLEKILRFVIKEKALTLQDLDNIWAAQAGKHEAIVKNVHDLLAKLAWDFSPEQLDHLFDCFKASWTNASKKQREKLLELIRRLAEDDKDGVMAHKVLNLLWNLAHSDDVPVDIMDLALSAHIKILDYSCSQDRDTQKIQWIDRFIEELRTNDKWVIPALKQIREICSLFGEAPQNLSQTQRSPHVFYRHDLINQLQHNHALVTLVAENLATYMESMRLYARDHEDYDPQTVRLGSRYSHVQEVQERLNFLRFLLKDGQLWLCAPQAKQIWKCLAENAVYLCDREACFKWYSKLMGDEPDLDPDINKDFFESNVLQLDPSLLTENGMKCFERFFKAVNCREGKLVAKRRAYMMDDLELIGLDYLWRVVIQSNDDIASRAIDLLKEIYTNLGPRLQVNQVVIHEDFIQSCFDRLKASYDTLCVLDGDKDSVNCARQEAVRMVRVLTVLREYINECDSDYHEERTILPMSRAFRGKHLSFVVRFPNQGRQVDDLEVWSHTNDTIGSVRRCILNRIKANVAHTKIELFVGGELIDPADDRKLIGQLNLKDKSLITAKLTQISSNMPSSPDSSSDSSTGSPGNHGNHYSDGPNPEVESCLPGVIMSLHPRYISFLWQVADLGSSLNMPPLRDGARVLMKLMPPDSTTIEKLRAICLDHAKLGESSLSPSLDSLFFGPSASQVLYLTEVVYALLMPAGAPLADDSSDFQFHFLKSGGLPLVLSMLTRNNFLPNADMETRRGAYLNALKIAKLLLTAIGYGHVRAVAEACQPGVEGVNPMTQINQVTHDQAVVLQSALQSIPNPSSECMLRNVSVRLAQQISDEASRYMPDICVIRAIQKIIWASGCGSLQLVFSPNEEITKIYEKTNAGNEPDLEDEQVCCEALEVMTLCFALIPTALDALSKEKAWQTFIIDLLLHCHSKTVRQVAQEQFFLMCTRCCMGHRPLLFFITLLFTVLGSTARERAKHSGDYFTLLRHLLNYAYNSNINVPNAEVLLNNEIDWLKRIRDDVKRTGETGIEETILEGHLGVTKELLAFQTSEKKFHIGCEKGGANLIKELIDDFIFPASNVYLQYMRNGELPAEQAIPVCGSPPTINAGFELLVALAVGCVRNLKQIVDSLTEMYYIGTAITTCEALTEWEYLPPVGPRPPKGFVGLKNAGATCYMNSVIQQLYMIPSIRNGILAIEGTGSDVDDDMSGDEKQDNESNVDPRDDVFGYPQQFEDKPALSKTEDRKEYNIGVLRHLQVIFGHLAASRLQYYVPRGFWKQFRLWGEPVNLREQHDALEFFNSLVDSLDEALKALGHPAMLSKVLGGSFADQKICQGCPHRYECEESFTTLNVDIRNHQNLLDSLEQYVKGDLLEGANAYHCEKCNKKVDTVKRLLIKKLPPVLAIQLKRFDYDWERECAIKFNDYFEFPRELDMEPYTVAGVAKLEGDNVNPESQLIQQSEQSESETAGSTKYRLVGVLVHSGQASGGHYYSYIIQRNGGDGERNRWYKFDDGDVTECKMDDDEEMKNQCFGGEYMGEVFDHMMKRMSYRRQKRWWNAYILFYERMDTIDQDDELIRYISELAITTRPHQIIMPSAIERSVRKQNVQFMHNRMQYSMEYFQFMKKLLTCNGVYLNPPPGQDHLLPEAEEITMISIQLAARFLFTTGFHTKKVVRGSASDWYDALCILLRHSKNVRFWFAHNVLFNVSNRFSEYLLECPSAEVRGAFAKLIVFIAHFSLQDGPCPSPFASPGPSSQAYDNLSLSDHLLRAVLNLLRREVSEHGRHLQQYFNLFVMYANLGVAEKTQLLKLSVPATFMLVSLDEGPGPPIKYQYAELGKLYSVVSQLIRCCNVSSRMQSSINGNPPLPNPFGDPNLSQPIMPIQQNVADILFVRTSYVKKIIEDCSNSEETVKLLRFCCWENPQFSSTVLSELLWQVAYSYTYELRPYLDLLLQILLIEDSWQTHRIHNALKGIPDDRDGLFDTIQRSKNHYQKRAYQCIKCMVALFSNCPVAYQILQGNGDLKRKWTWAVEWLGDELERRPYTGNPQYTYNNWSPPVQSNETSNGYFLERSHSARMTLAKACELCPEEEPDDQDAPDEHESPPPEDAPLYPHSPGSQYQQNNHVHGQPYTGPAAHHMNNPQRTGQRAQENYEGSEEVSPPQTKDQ

| USP9X IC50/UM [UM] | Structure (SMILES) |
| --- | --- |
| >50 | CN(C)CCOc1ccc(C(=O)NCc2cccc(C(=O)N[C@@H](CC(C)(C)C)C(=O)N(C)Cc3ccccc3)c2)cc1 [Compound 26] |
| >50 | CN(C)CCOc1ccc(C(=O)NCc2cccc(C(=O)N[C@@H](CC(C)(C)C)C(=O)NCc3ccccc3F)c2)cc1 [Compound 27] |
| >50 | CNCCOc1ccc(C(=O)NCc2cccc(C(=O)N[C@@H](CC(C)(C)C)C(=O)Nc3ccc(CCC(=O)O)cc3)c2)cc1 [Compound 30] |
| >50 | CNCCOc1ccc(C(=O)NCc2cccc(C(=O)N[C@@H](CC(C)C)C(=O)Nc3ccc(CCC(=O)O)cc3)c2)cc1 [Compound 32] |
| >50 | CNCCOc1ccc(C(=O)NCc2cccc(C(=O)N[C@@H](C)C(=O)Nc3ccc(CCC(=O)O)cc3)c2)cc1 [Compound 33] |
| >50 | CNCCOc1ccc(C(=O)NCc2cccc(C(=O)N3CCCC3C(=O)Nc3ccc(CCC(=O)O)cc3)c2)cc1 (centres unmarked) [Compound 36] |
| >50 | CNCCOc1ccc(C(=O)NCc2cccc(C(=O)N[C@@H](CC3CCCCC3)C(=O)Nc3ccc(CCC(=O)O)cc3)c2)cc1 [Compound 37] |
| >50 | CC(C)(C)C[C@H](NC(=O)c1cccc(CNC(=O)c2ccc(OCCNC(=O)CC(C)(C)CC(=O)NCCc3ccc(N)cc3)cc2)c1)C(=O)O [Compound 66] |
| >50 | CC(C)(C)C[C@H](N)C(=O)Nc1ccc(CCNC(=O)CC(C)(C)CC(=O)NCCOc2ccc(C(=O)NCc3cccc(C(=O)O)c3)cc2)cc1 [Compound 69] |

| Structure (SMILES) | USP9X IC50/UM [UM] |
| --- | --- |
| CC(=O)Nc1ccc(CCNC(=O)CC(C)(C)CC(=O)NCCOc2ccc(C(=O)NCc3cccc(C(=O)N[C@@H](CC(C)(C)C)C(=O)O)c3)cc2)cc1 [Compound 67] | >50 |
| CNC(=O)[C@H](CC(C)(C)C)NC(=O)c1cccc(CNC(=O)c2ccc(OCCNC(=O)CC(C)(C)CC(=O)NCCc3ccc(NC(C)=O)cc3)cc2)c1 [Compound 68] | >50 |
| CC(=O)N[C@@H](CC(C)(C)C)C(=O)Nc1ccc(CCNC(=O)CC(C)(C)CC(=O)NCCOc2ccc(C(=O)NCc3cccc(C(=O)O)c3)cc2)cc1 [Compound 70] | >50 |

Same assay, conditions: higher concentrations of compound (>10 μM)

| reduction of USP9X activity | Structure (SMILES) |
| --- | --- |
| approximately 60% | COCCNC(=O)[C@@H]1Cc2ccc(cc2)NC(=O)[C@H](CC(C)(C)C)NC(=O)c2cccc(c2)CNC(=O)c2ccc(cc2)OCCNC(=O)CC(C)(C)CC(=O)N1 [Compound 3A] |
| approximately 60% | CC(C)(C)C[C@@H]1NC(=O)c2cccc(c2)CNC(=O)c2ccc(cc2)OCCNC(=O)CCCCC(=O)N[C@H](C(=O)O)Cc2ccc(cc2)NC1=O [Compound 4A] |

Same assay, conditions: read-out: USP9X IC50/UM; Table 8

| IC50 [µM] | Structure (SMILES) |
| --- | --- |
| 0.53 | CNCCOc1ccc(C(=O)NCc2cccc(C(=O)N[C@@H](CC(C)(C)C)C(=O)Nc3ccc(CC(NC(=O)CC(C)(C)CC(=O)O)C(=O)OC)cc3)c2)cc1 (some centres unmarked) [Compound 1] |
| 0.18 | CNCCOc1ccc(C(=O)NCc2cccc(C(=O)N[C@@H](CC(C)(C)C)C(=O)Nc3ccc(CCNC(=O)CC(C)(C)CC(=O)O)cc3)c2)cc1 [Compound 2] |
| 0.28 | CNCCOc1ccc(C(=O)NCc2cccc(C(=O)N[C@@H](CC(C)(C)C)C(=O)Nc3ccc(CCC(=O)O)cc3)c2)cc1 [Compound 3] |
| 0.054 | CNCCOc1ccc(C(=O)NCc2cccc(C(=O)N[C@@H](CC(C)(C)C)C(=O)Nc3ccc(CN4CCCC4)cc3)c2)cc1 [Compound 4] |
| 0.055 | CN(C)CCOc1ccc(C(=O)NCc2cccc(C(=O)N[C@@H](CC(C)(C)C)C(=O)Nc3ccc(CN4CCCC4)cc3)c2)cc1 [Compound 5] |
| 0.7 | CNCCOc1ccc(C(=O)NCc2cccc(C(=O)N[C@@H](CC(C)(C)C)C(=O)Nc3ccc(CCc4ccccn4)cc3)c2)cc1 [Compound 6] |
| 0.59 | CN(C)CCOc1ccc(C(=O)NCc2cccc(C(=O)N[C@@H](CC(C)(C)C)C(=O)Nc3ccc(CCc4ccccn4)cc3)c2)cc1 [Compound 7] |
| 1.1 | CNCCOc1ccc(C(=O)NCc2cccc(C(=O)N[C@@H](CC(C)(C)C)C(=O)Nc3cccc(Cn4cccn4)c3)c2)cc1 [Compound 8] |
| 0.15 | CN(C)CCOc1ccc(C(=O)NCc2cccc(C(=O)N[C@@H](CC(C)(C)C)C(=O)Nc3cccc(Cn4cccn4)c3)c2)cc1 [Compound 9] |
| 0.091 | CNCCOc1ccc(C(=O)NCc2cccc(C(=O)N[C@@H](CC(C)(C)C)C(=O)Nc3ccc(Cn4ccnc4)cc3)c2)cc1 [Compound 10] |
| 0.08 | CN(C)CCOc1ccc(C(=O)NCc2cccc(C(=O)N[C@@H](CC(C)(C)C)C(=O)Nc3ccc(Cn4ccnc4)cc3)c2)cc1 [Compound 11] |
| 1.3 | CNCCOc1ccc(C(=O)NCc2cccc(C(=O)N[C@@H](CC(C)(C)C)C(=O)Nc3ccc(CC(F)(F)F)cc3)c2)cc1 [Compound 12] |
| 0.044 | CN(C)CCOc1ccc(C(=O)NCc2cccc(C(=O)N[C@@H](CC(C)(C)C)C(=O)Nc3ccc(CCN(C)C)cc3)c2)cc1 [Compound 13] |
| 0.12 | CN(C)CCOc1ccc(C(=O)NCc2cccc(C(=O)N[C@@H](CC(C)(C)C)C(=O)Nc3ccc(CCN4CCOCC4)cc3)c2)cc1 [Compound 14] |
| 23 | CN(C)CCNC(=O)[C@H](CC(C)(C)C)NC(=O)c1cccc(CNC(=O)c2ccc(OCCN(C)C)cc2)c1 [Compound 15] |
| 18 | CN(C)CCCNC(=O)[C@H](CC(C)(C)C)NC(=O)c1cccc(CNC(=O)c2ccc(OCCN(C)C)cc2)c1 [Compound 16] |
| 8 | CN(C)CCOc1ccc(C(=O)NCc2cccc(C(=O)N[C@@H](CC(C)(C)C)C(=O)NCCN3CCCC3)c2)cc1 [Compound 19] |
| 0.063 | CN(C)CCOc1ccc(C(=O)NCc2cccc(C(=O)N[C@@H](CC(C)(C)C)C(=O)Nc3ccc4nccn4c3)c2)cc1 [Compound 20] |
| 0.42 | Cc1ccc(NC(=O)[C@H](CC(C)(C)C)NC(=O)c2cccc(CNC(=O)c3ccc(OCCN(C)C)cc3)c2)cc1 [Compound 22] |
| 0.24 | COc1ccc(NC(=O)[C@H](CC(C)(C)C)NC(=O)c2cccc(CNC(=O)c3ccc(OCCN(C)C)cc3)c2)cc1 [Compound 23] |
| 0.066 | COC(=O)c1cc(NC(=O)[C@H](CC(C)(C)C)NC(=O)c2cccc(CNC(=O)c3ccc(OCCN(C)C)cc3)c2)ccc1C [Compound 24] |
| 0.068 | COC(=O)c1cccc(NC(=O)[C@H](CC(C)(C)C)NC(=O)c2cccc(CNC(=O)c3ccc(OCCN(C)C)cc3)c2)c1 [Compound 25] |

| IC50 [µM] | Structure (SMILES) |
| --- | --- |
| 32 | CN(C)CCOc1ccc(C(=O)NCc2cccc(C(=O)N[C@@H](CC(C)(C)C)C(=O)NCc3ccccn3)c2)cc1 [Compound 28] |
| 6 | CNCCOc1ccc(C(=O)NCc2cccc(C(=O)N[C@@H](CC(C)C)C(=O)Nc3ccc(CCC(=O)O)cc3)c2)cc1 [Compound 31] |
| 7 | CNCCOc1ccc(C(=O)NCc2cccc(C(=O)N3CCCC3C(=O)Nc3ccc(CCC(=O)O)cc3)c2)cc1 (centres unmarked) [Compound 35] |
| 0.09 | CNC(=O)CCc1ccc(NC(=O)[C@H](CC(C)(C)C)NC(=O)c2cc(CNC(=O)c3ccc(OCCN(C)C)cc3)ccc2F)cc1 [Compound 41] |
| 1.3 | CNC(=O)CCc1ccc(NC(=O)[C@H](CC(C)(C)C)NC(=O)c2cccc(CNC(=O)c3ccc(OC)cc3)c2)cc1 [Compound 42] |
| 0.76 | CNC(=O)CCc1ccc(NC(=O)[C@H](CC(C)(C)C)NC(=O)c2cc(CNC(=O)c3ccc(OC)cc3)ccc2F)cc1 [Compound 43] |
| 0.24 | COc1ccc(C(=O)NCc2cccc(C(=O)N[C@@H](CC(C)(C)C)C(=O)Nc3ccc(CCN(C)C)cc3)c2)cc1 [Compound 44] |
| 2.1 | CNC(=O)CCc1ccc(NC(=O)[C@H](CC(C)(C)C)NC(=O)c2cccc(CNC(=O)c3ccccc3)c2)cc1 [Compound 45] |
| 0.32 | CN(C)CCc1ccc(NC(=O)[C@H](CC(C)(C)C)NC(=O)c2cccc(CNC(=O)c3ccccc3)c2)cc1 [Compound 47] |
| 8.9 | CNC(=O)CCc1ccc(NC(=O)[C@H](CC(C)(C)C)NC(=O)c2cccc(CNC(C)=O)c2)cc1 [Compound 48] |
| 5 | CNC(=O)CCc1ccc(NC(=O)[C@H](CC(C)(C)C)NC(=O)c2cc(CNC(C)=O)ccc2F)cc1 [Compound 49] |
| 2.3 | CC(=O)NCc1cccc(C(=O)N[C@@H](CC(C)(C)C)C(=O)Nc2ccc(CCN(C)C)cc2)c1 [Compound 50] |
| 0.36 | CNCCOc1ccc(C(=O)NCc2ccc(F)c(C(=O)N[C@@H](CC(C)(C)C)C(=O)Nc3ccc(CCC(=O)O)cc3)c2)cc1 [Compound 53] |
| 4.7 | COc1ccc(C(=O)NCc2cccc(C(=O)N[C@@H](CC(C)(C)C)C(=O)Nc3ccc(CCC(=O)O)cc3)c2)cc1 [Compound 55] |
| 7 | CC(C)(C)C[C@H](NC(=O)c1cccc(CNC(=O)c2ccccc2)c1)C(=O)Nc1ccc(CCC(=O)O)cc1 [Compound 57] |
| 4.9 | CC(C)(C)C[C@H](NC(=O)c1cc(CNC(=O)c2ccccc2)ccc1F)C(=O)Nc1ccc(CCC(=O)O)cc1 [Compound 58] |
| 13 | CC(=O)NCc1ccc(F)c(C(=O)N[C@@H](CC(C)(C)C)C(=O)Nc2ccc(CCC(=O)O)cc2)c1 [Compound 60] |
| 5.8 | CC(C)(C)C[C@H](NC(=O)c1cccc(CNC(=O)c2ccc(OCCO)cc2)c1)C(=O)Nc1ccccc1 [Compound 61] |
| 6.9 | Cc1ccc(NC(=O)[C@H](CC(C)(C)C)NC(=O)c2cccc(CNC(=O)c3ccc(OCCO)cc3)c2)cc1 [Compound 62] |
| 0.22 | CC(C)(C)C[C@H](NC(=O)c1cccc(CNC(=O)c2ccc(OCCO)cc2)c1)C(=O)Nc1ccc(CCN)cc1 [Compound 63] |
| 0.65 | CC(=O)NCCc1ccc(NC(=O)[C@H](CC(C)(C)C)NC(=O)c2cccc(CNC(=O)c3ccc(OCCO)cc3)c2)cc1 [Compound 64] |
| 0.6 | CC(C)(C)CC(=O)NCCc1ccc(NC(=O)[C@H](CC(C)(C)C)NC(=O)c2cccc(CNC(=O)c3ccc(OCCO)cc3)c2)cc1 [Compound 65] |

Same assay, conditions: ubiquitin-rhodamine110 substrate

| effect on USP9X activity | Structure (SMILES) |
| --- | --- |
| partially inhibited | CN1CCOc2ccc(cc2)C(=O)NCc2ccc(F)c(c2)C(=O)N[C@@H](CC(C)(C)C)C(=O)Nc2ccc(cc2)CCN(C)C(=O)CCC(C)(C)CCC1=O [Compound 1A, (S)-5^4-fluoro-14,18,18,22-tetramethyl-S-neopentyl-25-oxa-3,7,10,14,22-pentaaza-1,11(1,4),5(1,3)-tribenzenacyclopentacosaphane-2,6,9,15,21-pentaone] |

From patent US20240294467A1, “USP9X Inhibitors” (ProDeg, LLC, priority 2021, published 2024)
